Results taken from US9586963B2 (GENFIT, priority 2011, dated 2017).

Columns and labels:
Rev-Erb alpha [1] = target: T1, Rev-Erb alpha (Homo sapiens, UniProt P20393); experiment: M2H (mammalian two-hybrid) cellular activation assay of Rev-Erb alpha; assay type: cell-based; details: M2H assay, HEK293 cells, Gal4-Rev-Erb alpha / VP16-NCoR, luciferase reporter
T1 sequence (P20393 284-614 limits assumed): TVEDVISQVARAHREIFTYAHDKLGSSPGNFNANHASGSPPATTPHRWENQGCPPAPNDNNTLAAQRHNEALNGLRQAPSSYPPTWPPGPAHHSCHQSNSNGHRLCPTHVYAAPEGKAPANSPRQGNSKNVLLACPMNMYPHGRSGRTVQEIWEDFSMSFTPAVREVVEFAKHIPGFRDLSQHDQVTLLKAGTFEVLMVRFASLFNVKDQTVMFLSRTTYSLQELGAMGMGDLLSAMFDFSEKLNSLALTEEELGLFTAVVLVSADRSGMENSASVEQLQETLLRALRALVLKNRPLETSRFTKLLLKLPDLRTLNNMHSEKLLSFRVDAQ
In short: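 Six-point dose-response, 18 h, 37 °C, serum-free, in HEK293 cells carrying a Gal4-RE luciferase reporter with Gal4-Rev-Erb alpha or beta plus VP16-NCoR (corepressor interaction readout). EC50 and TOP activation (%) derived from luminescence across four experiments.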

[2] = system: Diet Induced Obesity mice; experiment: In vivo evaluation in Diet Induced Obesity mice (high fat diet): glycemia, Hb1Ac; parameters: species or system C57BI/6J mice; details: diet induce obese mice, 45 mpk, once daily by gavage, 28 days
Procedure: Four week-old male C57BI/6J mice (from Janvier, France) were fed with an high fat diet (D12492, SSNIFF) for up to 10 weeks. All mice were housed 2 per cage under controlled conditions of humidity, lighting and temperature. At the end of the 10 week of diets, mice were randomized according to their body weight gain, body weight, and their non-fasting glycaemia. The treatments with compound of interest were administered once daily, by gavage (10 mL/kg) for 28 consecutive days. For oral administrations, the drugs were suspended in CMC 1%+Tween 80 0.1%.
As previously described animals were assayed for their non fasting glycaemia and biochemical parameters such as Hb1Ac.
(§1) At the end of the treatment period, animals were anesthetized with isoflurane and then sacrificed by cervical dislocation. The Student's t-test was used to test for statistical differences between drug and vehicle treatments when a single dose of drug was used.

db/db mice [3] = experiment: In vivo evaluation in db/db mice: glycemia, HbA1c, plasma triglycerides; details: once daily by gavage, 28 days
Procedure: 7-weeks-old male db/db mice were purchased from Charles River (France). Mice were 9-weeks-old at the beginning of the study. All mice were housed 2 per cage under controlled conditions of humidity, lighting and temperature. They had free access to food (R03, SAFE) and water.
Mice were randomized according to their body weight, and the non-fasting glycaemia, and assigned to 3 different groups: • Group 1: Control_Vehicle n=8 • Group 2: Cpd-4-39 25 mg/kg n=8 • Group 3: Cpd-4-39 100 mg/kg n=8 Treatments and Sample Analysis
The treatments were administered once daily, by gavage (10 mL/kg) for 28 consecutive days (unless otherwise mentioned). For oral administrations, compound was suspended in CMC 1%+Tween 80 0.1%.
Non fasting blood glucose level was determined from tail vein blood using a glucometer (Smart Chek, Kitvia), Blood samples were withdrawn under anesthesia by retro-orbital puncture at the end of the treatment period. Tubes containing blood were rapidly centrifuged after collection (15 minutes at 4,000 rpm/4° C.) and the plasma fraction was collected. Plasma aliquots were stored at −20° C. for further analyses.
The blood concentration of glycosylated hemoglobin A1c was determined using the Randox kit for Daytona automate (Randox, cat# HA 3830) according to the manufacturer's recommendations. Total hemoglobin and HbA1c concentrations were measured and the HbA1c result was expressed as a percentage of the total hemoglobin concentration.
The triglyceride content of plasma was measured using the Randox kit for Daytona automate (Randox, cat# TR 3823) according to the manufacturer's recommendations. In this protocol, the triglycerides are hydrolyzed by a lipase. The resulting glycerol concentration is then measured by an enzymatic method and spectrophotometric measurement. Results are expressed in mg/dL. • Oral Glucose Tolerance Test
At the end of the treatment period, animals were anesthetized with isoflurane and then sacrificed by cervical dislocation. Liver, quadriceps muscle and epididymal adipose tissues were collected. […]

Bmal1 [4] = experiment: Gene expression of Rev-Erb alpha target gene Bmal1 in tissues of treated db/db mice; assay type: in vivo; details: 25 and 100 mpk, adipose tissue, muscle, liver
Description: as §1, with “dislocation. Liver, quadriceps muscle and epididymal adipose tissues were collected.” for “dislocation.”, “used while ANOVA followed by Dunnett's Multiple Comparison post hoc test was used for dose responses.” for “used.”
Gene expression studies have been performed on mRNA isolated from different metabolic tissues such as liver, adipose tissue and skeletal muscle. […] is considered as a target gene of Rev-Erba. Activation of Rev-Erba activity should then translate in a reduction of […] gene expression.

db/db mice [5] = experiment: Oral glucose tolerance test in db/db mice; assay type: in vivo; details: 50 mpk
Procedure: Oral glucose tolerance test (OGTT) was performed as followed, at day 35 of treatment, after a 16-hour fasting period, an oral glucose load was administered at T=0 (2 g/kg of glucose, 10 mL/kg) and glycemia was measured at the tail vein at T=15, 30, 60, 90, 120 & 180 minutes.
Oral glucose tolerance test is a widely used assay perform to assess the body's tolerance to an orally glucose bolus, it is considered as a good marker of insulin resistance and diabetes. […] Improvement of the body's insulin sensitivity is illustrated on FIG. 3(b).

Rev-Erb alpha [6] = target: T2, Rev-Erb alpha (Homo sapiens, UniProt P20393); details: Moore J T et al., 2006; cited from earlier work
T2 sequence (P20393 1-614): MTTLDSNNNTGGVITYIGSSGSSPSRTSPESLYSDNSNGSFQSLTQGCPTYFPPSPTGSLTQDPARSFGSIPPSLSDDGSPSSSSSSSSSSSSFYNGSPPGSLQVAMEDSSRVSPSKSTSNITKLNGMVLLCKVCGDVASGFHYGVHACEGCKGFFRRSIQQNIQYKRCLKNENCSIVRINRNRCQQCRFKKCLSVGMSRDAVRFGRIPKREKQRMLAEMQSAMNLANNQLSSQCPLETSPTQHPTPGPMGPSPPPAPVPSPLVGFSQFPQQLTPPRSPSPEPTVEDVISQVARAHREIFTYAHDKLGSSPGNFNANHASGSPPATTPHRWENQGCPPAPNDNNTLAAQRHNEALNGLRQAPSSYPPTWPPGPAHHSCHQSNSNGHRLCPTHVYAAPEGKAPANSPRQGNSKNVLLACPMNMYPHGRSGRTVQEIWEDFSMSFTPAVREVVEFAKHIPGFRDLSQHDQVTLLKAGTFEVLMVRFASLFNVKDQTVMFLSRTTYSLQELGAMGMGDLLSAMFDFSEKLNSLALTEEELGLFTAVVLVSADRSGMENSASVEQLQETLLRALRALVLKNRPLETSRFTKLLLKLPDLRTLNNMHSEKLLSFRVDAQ

Rev-Erb alpha [7] = target: T2, Rev-Erb alpha; details: FRET assay; Meng Q J et al., 2008; cited from earlier work
Bmal1 [8] = details: cell culture, dose-dependent; cited from earlier work
3T3-L1 cells = details: lipid accumulation and adipogenic genes; cited from earlier work
[9] = high clearance and rapid metabolism; cited from earlier work

For `FC(F)(F)c1ccc(-c2cncnc2)c(Oc2ccc3nnc(Cl)n3n2)c1` [Cpd.4-99, 3-chloro-6-(2-(pyrimidin-5-yl)-5-(trifluoromethyl)phenoxy)-[1,2,4]triazolo[4,3-b]pyridazine], the EC50 (Rev-Erb alpha [1]) was 1000 to 6000 nM, the Hb1Ac levels [2] was “significantly reduced” and the “non fasting blood glucose concentration” value [2] was “significantly reduce”.

With `FC(F)(F)c1ccc(-c2cccnc2)c(Oc2ccc3nnc(Cl)n3n2)c1` the EC50 (Rev-Erb alpha [1]) was 100 to 1000 nM, the Circulating triglycerides (db/db mice [3]; 25 and 100 mpk) was “reduced” and the HbA1c (db/db mice [3]; 25 and 100 mpk) was “significantly reduced”. For the same molecule, the glycemia (db/db mice [3]; 100 mpk, compared to control mice) was “significantly reduced”, the “Small expression in the studied organs (Bmal1 gene expression, FIGS. 13)” value (Bmal1 [4]) was “significant inhibition” and the “area under the curve, glucose tolerance” value (db/db mice [5]; OGTT) was “Cpd-4-39 dependent effect on glucose tolerance”. For the same molecule, the “evolution of blood glucose in oral glucose tolerance test” value (db/db mice [5]; day 35, 16-hour fasting, 2 g/kg glucose) was “improved evolution of their blood glucose”.

In the case of `C=CC1=C(C)c2cc3[n-]c(cc4[n-]c(cc5nc(cc1n2)C(C)=C5C=C)c(C)c4CCC(=O)O)c(CCC(=O)O)c3C.[Fe+2]` [Heme], the Kd (Rev-Erb alpha [6]) is listed as 2000 to 3000 nM.

For `CC(C)(C)OC(=O)CN(Cc1ccc(Cl)cc1)Cc1ccc([N+](=O)[O-])s1` [GSK4112], the “interaction of NCoR-derived peptide with Rev-Erb alpha” value (Rev-Erb alpha [7]) is listed as “dose-dependently increasing the interaction”, the Bmal1 expression (Bmal1 [8]) is listed as “decreases Bmal1 expression” and the adipogenesis (3T3-L1 cells) is listed as “induces adipogenesis”. For the same molecule, the pharmacokinetic properties [9] was “poor pharmacokinetic properties”.
